The subject of experiment [1] is CD1d reactive T cell hybridomas with an invariant Vα14i T cell antigen receptor. In words: 1.2 hybridoma assay (IL-2 release by ELISA). In kind it is cell-based, mouse. Conditions: for IL-2 secretion: CD1d coated plates, Sphingomonas glycolipids and analogues; for IL-2 production (relative activity of fatty acyl chain analogs): 0.0001-1 μg/ml, CD1d transfected A20 cells. Here is the method:
As a measure of T cell activation, IL-2 release into the tissue culture medium was measured after 16 hours culture by an ELISA assay.
As a measure of T cell activation, IL-2 and IFN-γ release into the tissue culture medium was measured after 16 hours culture by an ELISA assay.
In general terms: ELISA stands for enzyme-linked immunosorbent assay.

Experiment [2] relates to Vα24i human NKT cell line. In words: In vitro cytokine secretion assay using human NKT cell lines. The class given is cell-based. The note with it: for IFN-γ secretion / IL-4 secretion: CD14+ immature dendritic cells, 10 μg/ml glycolipid (1-10 μg/ml for 3-O-sulfo-α-galactosylceramide), 10 IU/ml IL-2. The procedure:
(§1) Human NKT cell lines, expressing the Vα24i T cell receptor as well as CD161, were generated as follows: Anti-CD161 monoclonal antibodies, and anti-CD14 monoclonal antibodies, each coupled to magnetic beads (Miltenyi biotec, Auburn, Calif.), were used sequentially to isolate CD161^+ cells and CD14^+ cells from leukopaks. Immature dendritic cells were generated from the CD14^+ cells after a two-day incubation in the presence of 300 U/ml GM-CSF (R&D systems, Minneapolis, Minn.) and 100 U/ml IL-4 (R&D systems, Minneapolis, Minn.). Following irradiation with 2000 rads, the immature dendritic cells were co-cultured with syngeneic CD161^+ cells in the presence of 100 ng/ml of alpha-galactosylceramide and 10 IU/ml of IL-2 (Invitrogen, Carlsbad Calif.) for 10 to 14 days. After stimulating the CD161^+ cells a second time with alpha-galactosylceramide-pulsed, irradiated immature dendritic cells, NKT cell lines were shown by flow cytometry to express both CD161^+ and V 24i TCR (99% purity).
IFN-γ and IL-4 secretion by the Vα 24i human NKT cell line was determined by ELISA (BD Pharmingen, San Diego, Calif.) after culture for 16 hours. For these assays, 1×10^5 Vα 24i human NKT cells were co-cultured with 4×10^5 irradiated, immature CD14^+ dendritic cells, in the presence of the glycolipid compounds at 10 μg/ml in a 96-well flat-bottom plate.
as §1, with “of 100-0.1” for “of 100”
In some cases, Hela cells were transfected with a human CD1d construct [Xing et al. 2005. Bioorg Med Chem 13: 2907], and were used to present the glycolipids, via pulsing with the respective compounds at the indicated concentration, to NKT lines.
IFN-γ secretion by the Vα 24i human NKT cell line was determined by ELISA (BD Pharmingen, San Diego, Calif.) after culture for 16 hours. For these assays, 1×10^5 Vα 24i human NKT cells were co-cultured with 4×10^5 irradiated, immature CD14^+ dendritic cells, in the presence of the glycolipid compounds at 10 μg/ml in a 96-well flat-bottom plate.

In experiment [3] the test system is human CD161+ NK+NKT cells. In words: Cytokine secretion by human CD161+ NK+NKT cells in the presence of CD14+ DCs. In kind it is cell-based. Here is the method:
Human Vα24i NKT cells response to synthetic Sphingomonas and sulfatide glycolipids, in terms of IFN-γ (a) and IL-4 (b) release after culture with 4×10^5 autologous immature CD14+ dendritic cells pulsed with the indicated glycolipid antigens at 10 μg/ml. Negative controls included similar numbers of NKT cells and dendritic cells, cultured without added glycolipid. Data represent mean±S.D. of duplicate well; (c) in vitro INF-γ secretion by human CD161^+ NK+NKT cells (2×10^5/well) in the presence of CD14^+ DCs (4×10^5/well) and 20 μg/ml of various glycolipids; (d) in vitro IL-4 secretion by human CD161^+ NK+NKT cells (2×10^5/well) in the presence of CD14^+ DCs (4×10^5/well) and 20 μg/ml of various glycolipids.

Experiment [4] deals with Vα24i human NKT cell line. Kind of experiment: In vitro cytokine secretion assay using human NKT cell lines. Conditions: CD14+ DCs; 100-0.1 ng/mL; all doses. In kind it is cell-based.
Experiment [5] relates to spleen CD11c+ DCs. In words: DC maturation in vivo (surface markers, flow cytometry). Also noted: species or system mouse. The note with it: mouse, in vivo. The procedure: 2×10^7 irradiated J558-Ld^− cells, were injected i.v. or s.c. into Balb/c mice with or without α-Gal Cer as a DC maturation stimulus. In some experiments we compared α-Gal Cer to agonistic anti-CD40 mAb (1C10, 25 μg i.p.) or the toll like receptor ligands, poly IC ([…], Invivogen) or lipopolysaccharide (20 μgm, Sigma). The mice had been given CFSE-labeled PICTL CD8^+ T cells i.v. 1 d earlier, or were naive animals. In some experiments, mice were sacrificed 3 d later, and T cell division and activation in spleen were analyzed by flow cytometry. Additionally, 7 d or 2 months later, 5×10^6 live J558 tumor cells were inoculated subcutaneously. 5×10^6 Meth A fibrosarcoma was used as a control tumor for challenge. Tumor cell growth was measured with calipers every other day. Mice were scored positive for tumor as soon as tumors became palpable and grew progressively. Mice were euthanized when tumor size exceeded 400 mm^2.
T-cell division, phagocytosis of CFSE-labeled tumor cells and acquisition of cell surface-activation markers were determined by flow cytometry. Briefly, spleens were harvested and low-density splenocytes were stained with CD11c-APC and CD8α-PE, CD11b-PE, B220-PE or CD4-PE for the up-take examination. For in vivo proliferation of P1CTL T-cells, spleens were harvested and the splenocytes suspension was staining with CD8α-Cy, Vα8α-PE, CD25-PE, CD62L-PE. For intracellular cytokine staining, splenocytes were stimulated in vitro with 1 µg/ml P1A peptide in 5 μg/ml brefeldin A (Sigma-Aldrich) at 37° C. for 4 hrs. The cells were first stained with CD8α-Cy-Chrome™, fixed and permeabilized with cytofix-cytoperm buffer (BD Biosciences), and stained with PE conjugated mAbs to IL-2 or IFN-γ.
Flow cytometry. Acquisition of cell surface-activation markers was determined by flow cytometry. […] Spleen CD11c+ DCs were isolated using anti-CD11c magnetic beads and stained with CD11c-FITC, CD8α− allophycocyanin, and PE-Conjugated I-Ad, CD40, CD80, CD86, CD119, B7-H1 and B7-DC. We used a FACSCalibur™ with data analysis in FlowJo (Tree Star).

Entries after “also recorded” stand apart in the source; their conditions may differ.

Consider “2-Hexacosylamino-1-O-(3-O-sulfo-α-D-galactopyranosyl)-D-ribo-1,3,4-octadecantriol, Sodium Salt [Compound 4]”, for which the “biological activity in the 1.2 hybridoma assay (IL-2 secretion)” value in experiment [1] is recorded as “caused significant IL-2 secretion”. Besides, the “activity relative to αGalCer (dose response curves, IL-2)” value in experiment [1] (data not shown) is reported as “somewhat less active than αGalCer”. Also, the “IL-2 release from the hybridomas” value in experiment [1] (glycolipid at 10 μg/ml, 16 hours culture) is “stimulated significant IL-2 release”. Also, in experiment [2], the IFN-γ secretion entry is recorded as “approximately half that of α-GalCer” and the IL-4 secretion entry was “approximately half that of α-GalCer”. Moreover, in experiment [3] (glycolipid presented by CD14+ DCs, 10-20 μg/mL), the “IL-4 secretion by human NKT cells” value is “efficiently stimulated IL-4 and IFN-γ secretion”. The “interferon-γ secretion by human NKT cells” value in experiment [3] (glycolipid presented by CD14+ DCs, 10-20 μg/mL, compared to α-GalCer, Sodium Salt) was “superior; also recorded: efficiently stimulated IL-4 and IFN-γ secretion”.
Take “3-O-sulfo-β-galactosylceramide [Compound 10]”: in experiment [2], the IFN-γ secretion result was “elicit both IFN-γ and IL-4 production”; the IL-4 secretion result was “elicit both IFN-γ and IL-4 production”. Further, the “affinity for NKT lymphocytes” value in experiment [3] is recorded as “minimal to no affinity for NKT lymphocytes”.
Turning to `CCCCCCCCCCCCCCC[C@@H](O)[C@H](COC1OC(C(=O)O)C(O)C(O)C1O)NC(=O)CCCCCCCCCCCCC` (some centres unmarked) [Compound 5], the “reactivity of human Vα24i NKT cells” value in experiment [2] is “conserved”.
Same read-out and setting: with `CCCCCCCCCCCCCCC[C@@H](O)[C@H](COC1OC(C(=O)O)C(O)C(O)C1O)NC(=O)[C@@H](O)CCCCCCCCCCCC` (some centres unmarked) [Compound 6] the entry was “conserved”.
For the compound `CCCCCCCCCCCCCCC[C@@H](O)[C@H](COC1OC(CO)C(O)C(O)C1O)NC(=O)CCCCCCCCCCCCC` (some centres unmarked) [Compound 7], the IL-2 secretion result in experiment [1] is recorded as “greater IL-2 secretion”.
Still for that read-out and setting: with `CCCCCCCCCCCCCCC[C@@H](O)[C@H](COC1OC(CO)C(O)C(O)C1O)NC(=O)[C@@H](O)CCCCCCCCCCCC` (some centres unmarked) [Compound 8] the entry was “less able to activate IL-2 secretion when compared with 5”.
On to `CCCCCCCCCCCCCC[C@@H](O)[C@@H](O)[C@H](COC1OC(CO)C(O)C(O)C1O)NC(=O)CCCCCc1ccccc1` (some centres unmarked) [Compound 83], for which, in experiment [1], the “IL-2 production (relative activity of fatty acyl chain analogs)” value was “significant increase of IL-2 production”. Also, in experiment [2], the “selectivity IFN-γ versus IL-4 production” value was “high ratio of IFN-γ/IL-4 activity”. For the same compound, the “IFN-γ secretion compared to KRN” value in experiment [4] is on record as “consistently stimulating greater IFN-γ secretion”.
For the compound `CCCCCCCCCCCCCC[C@@H](O)[C@@H](O)[C@H](COC1OC(CO)C(O)C(O)C1O)NC(=O)CCCCCCCc1ccccc1` (some centres unmarked) [Compound 84], the “IL-2 production (relative activity of fatty acyl chain analogs)” value in experiment [1] is “significant increase of IL-2 production”. The “IFN-γ secretion compared to KRN” value in experiment [4] is “consistently stimulating greater IFN-γ secretion”.
As to poly IC, the “phenotypic changes of DC maturation (CD40, CD86, MHC class II, B7-H1, B7-DC up, CD119 down)” value in experiment [5] is given as “induced similar phenotypic changes of maturation”.
